Experimental data reported in ChEMBL document CHEMBL1201862, “PubChem BioAssay data set” (2004).
Active and inactive are the calls of the source.

Tests used:
[1] = luciferase reporter signal suppression in cells – H4 neuroglioma cells, luminescence, dose response (AID 1990); format: functional, cell-based
Paired box protein Pax-8 = Paired box protein Pax-8 (Homo sapiens, UniProt Q06710); assay: PAX8 transcriptional activity inhibition in RMG-I – RMG-I cells, luciferase, cherry-pick, dose response (AID 687027); format: functional, cell-based;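 also: luciferase reporter driven by Pax8 target thyroperoxidase promoter measured by SteadyGlo luminescence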
[2] = molecular target: Intestinal-type alkaline phosphatase (Homo sapiens, UniProt P09923); assay: activation of human intestinal alkaline phosphatase – biochemical, dose response (AID 488873); format: functional
Chain of Intestinal-type alkaline phosphatase (P09923 whole entry): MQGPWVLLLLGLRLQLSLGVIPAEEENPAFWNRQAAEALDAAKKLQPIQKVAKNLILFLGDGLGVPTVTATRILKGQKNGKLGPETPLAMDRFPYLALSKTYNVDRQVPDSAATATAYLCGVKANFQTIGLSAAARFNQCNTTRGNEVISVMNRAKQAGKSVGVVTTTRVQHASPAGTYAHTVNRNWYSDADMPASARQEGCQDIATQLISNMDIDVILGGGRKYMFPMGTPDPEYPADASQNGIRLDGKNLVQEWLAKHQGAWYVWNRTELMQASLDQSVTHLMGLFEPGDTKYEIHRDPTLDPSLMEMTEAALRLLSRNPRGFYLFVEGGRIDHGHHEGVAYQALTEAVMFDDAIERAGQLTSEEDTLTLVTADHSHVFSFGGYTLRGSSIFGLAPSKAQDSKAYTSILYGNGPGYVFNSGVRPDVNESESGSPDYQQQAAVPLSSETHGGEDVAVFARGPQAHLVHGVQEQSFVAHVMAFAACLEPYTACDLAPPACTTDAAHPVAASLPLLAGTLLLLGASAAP

[3] = molecular target: T1, Alkaline phosphatase, tissue-nonspecific isozyme (Homo sapiens, UniProt P05186); assay: activation of tissue-nonspecific alkaline phosphatase – biochemical, TNAP isozyme, mouse IAP uHTS hits, selectivity assay for mouse IAP activator project, dose response (AID 488880); format: functional
T1 sequence (P05186 whole entry): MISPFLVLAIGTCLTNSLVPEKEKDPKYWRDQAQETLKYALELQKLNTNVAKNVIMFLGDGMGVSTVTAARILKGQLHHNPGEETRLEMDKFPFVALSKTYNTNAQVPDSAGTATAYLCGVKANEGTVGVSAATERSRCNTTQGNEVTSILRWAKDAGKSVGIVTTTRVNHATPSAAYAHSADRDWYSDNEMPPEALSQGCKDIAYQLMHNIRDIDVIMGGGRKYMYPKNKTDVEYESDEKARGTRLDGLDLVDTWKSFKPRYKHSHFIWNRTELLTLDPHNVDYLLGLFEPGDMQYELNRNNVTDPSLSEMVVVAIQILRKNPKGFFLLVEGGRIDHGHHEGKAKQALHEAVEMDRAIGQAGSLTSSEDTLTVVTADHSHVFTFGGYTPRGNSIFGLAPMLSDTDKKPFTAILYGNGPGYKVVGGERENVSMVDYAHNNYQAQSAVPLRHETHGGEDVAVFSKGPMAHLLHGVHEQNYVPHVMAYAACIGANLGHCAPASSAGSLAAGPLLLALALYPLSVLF

[4] = molecular target: Ribosomal protein S6 kinase alpha-3 (Homo sapiens, UniProt P51812); format: functional;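 also: measured within a kinome-wide profiling panel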
Chain of Ribosomal protein S6 kinase alpha-3 (P51812 whole entry): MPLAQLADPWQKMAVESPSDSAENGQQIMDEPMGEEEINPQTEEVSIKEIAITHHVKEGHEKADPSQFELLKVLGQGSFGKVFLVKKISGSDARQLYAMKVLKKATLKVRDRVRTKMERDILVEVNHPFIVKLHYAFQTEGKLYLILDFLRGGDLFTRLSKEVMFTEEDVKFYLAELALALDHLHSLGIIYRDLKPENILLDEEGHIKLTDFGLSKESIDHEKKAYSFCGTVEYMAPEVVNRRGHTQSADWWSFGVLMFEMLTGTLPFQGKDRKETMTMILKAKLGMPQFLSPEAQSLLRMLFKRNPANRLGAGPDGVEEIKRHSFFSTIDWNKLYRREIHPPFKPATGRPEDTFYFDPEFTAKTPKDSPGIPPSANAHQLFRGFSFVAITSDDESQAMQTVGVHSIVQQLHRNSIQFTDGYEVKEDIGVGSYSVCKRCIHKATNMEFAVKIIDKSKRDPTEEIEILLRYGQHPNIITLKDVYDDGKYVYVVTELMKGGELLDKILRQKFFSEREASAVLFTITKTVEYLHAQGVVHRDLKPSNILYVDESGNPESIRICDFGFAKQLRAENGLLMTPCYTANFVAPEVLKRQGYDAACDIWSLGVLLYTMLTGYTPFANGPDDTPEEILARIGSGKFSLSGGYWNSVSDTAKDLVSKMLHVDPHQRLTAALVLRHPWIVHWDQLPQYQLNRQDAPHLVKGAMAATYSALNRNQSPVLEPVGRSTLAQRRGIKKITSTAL

[5] = molecular target: Tyrosine-protein kinase JAK2 (Homo sapiens, UniProt O60674); format: functional;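 also: JAK2 tested as one member of a kinase panel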
[6] = molecular target: Serine/threonine-protein kinase D2 (Homo sapiens, UniProt Q9BZL6); format: functional;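 also: measured against PRKD2 as one member of a kinome-wide kinase profiling panel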
Chain of Serine/threonine-protein kinase D2 (Q9BZL6 whole entry): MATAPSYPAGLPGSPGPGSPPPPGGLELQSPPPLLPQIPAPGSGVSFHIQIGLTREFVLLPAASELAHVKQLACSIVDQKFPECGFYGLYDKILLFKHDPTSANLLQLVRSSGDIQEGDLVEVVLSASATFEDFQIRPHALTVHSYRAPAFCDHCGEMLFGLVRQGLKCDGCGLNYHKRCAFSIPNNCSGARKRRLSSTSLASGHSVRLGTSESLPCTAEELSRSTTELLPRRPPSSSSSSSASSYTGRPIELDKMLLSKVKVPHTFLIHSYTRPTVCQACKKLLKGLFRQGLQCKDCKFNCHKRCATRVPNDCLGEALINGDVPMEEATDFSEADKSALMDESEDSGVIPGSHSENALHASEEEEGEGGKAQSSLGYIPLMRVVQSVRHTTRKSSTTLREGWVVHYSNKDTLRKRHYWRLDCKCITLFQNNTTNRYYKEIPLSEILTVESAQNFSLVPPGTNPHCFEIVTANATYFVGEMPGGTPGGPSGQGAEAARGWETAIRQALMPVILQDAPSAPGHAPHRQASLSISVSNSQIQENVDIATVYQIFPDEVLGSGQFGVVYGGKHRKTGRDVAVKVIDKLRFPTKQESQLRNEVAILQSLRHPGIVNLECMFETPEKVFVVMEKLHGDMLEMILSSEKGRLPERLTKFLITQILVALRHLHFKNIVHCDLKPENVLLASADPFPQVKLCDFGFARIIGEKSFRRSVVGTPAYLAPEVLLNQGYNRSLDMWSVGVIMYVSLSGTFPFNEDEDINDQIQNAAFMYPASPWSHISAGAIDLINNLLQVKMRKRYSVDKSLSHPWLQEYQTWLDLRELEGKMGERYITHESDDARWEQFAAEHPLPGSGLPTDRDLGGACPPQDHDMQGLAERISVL

[7] = molecular target: Death-associated protein kinase 3 (Homo sapiens, UniProt O43293); format: functional;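 also: measured as one member of a kinome-wide profiling panel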
Chain of Death-associated protein kinase 3 (O43293 whole entry): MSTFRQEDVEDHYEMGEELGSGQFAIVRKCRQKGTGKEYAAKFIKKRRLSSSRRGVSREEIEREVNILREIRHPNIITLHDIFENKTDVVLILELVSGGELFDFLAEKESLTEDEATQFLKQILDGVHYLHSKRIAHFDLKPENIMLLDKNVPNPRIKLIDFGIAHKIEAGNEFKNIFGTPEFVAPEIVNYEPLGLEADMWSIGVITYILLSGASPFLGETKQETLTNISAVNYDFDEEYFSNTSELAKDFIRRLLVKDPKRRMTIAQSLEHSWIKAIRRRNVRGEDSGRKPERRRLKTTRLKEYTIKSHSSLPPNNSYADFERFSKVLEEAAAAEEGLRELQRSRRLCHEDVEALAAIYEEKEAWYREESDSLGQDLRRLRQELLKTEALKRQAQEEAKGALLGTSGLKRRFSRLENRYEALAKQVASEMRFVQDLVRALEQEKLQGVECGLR

[8] = molecular target: MAP kinase-activated protein kinase 2 (Homo sapiens, UniProt P49137); format: functional;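 also: measured as one member of a kinome-wide kinase panel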
[9] = molecular target: Testis-specific serine/threonine-protein kinase 1 (Homo sapiens, UniProt Q9BXA7); format: functional
Chain of Testis-specific serine/threonine-protein kinase 1 (Q9BXA7 whole entry): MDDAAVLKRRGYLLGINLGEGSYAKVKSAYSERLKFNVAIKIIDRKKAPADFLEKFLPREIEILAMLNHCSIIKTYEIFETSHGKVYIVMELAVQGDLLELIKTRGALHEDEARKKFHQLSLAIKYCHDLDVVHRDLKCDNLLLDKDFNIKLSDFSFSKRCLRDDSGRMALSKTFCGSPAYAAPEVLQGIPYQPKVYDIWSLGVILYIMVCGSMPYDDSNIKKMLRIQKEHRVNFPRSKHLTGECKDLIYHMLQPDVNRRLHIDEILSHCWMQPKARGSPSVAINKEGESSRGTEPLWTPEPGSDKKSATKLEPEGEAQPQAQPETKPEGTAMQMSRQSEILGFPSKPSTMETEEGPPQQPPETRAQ

[10] = molecular target: Non-receptor tyrosine-protein kinase TYK2 (Homo sapiens, UniProt P29597); format: functional
[11] = molecular target: Mitogen-activated protein kinase kinase kinase kinase 2 (Homo sapiens, UniProt Q12851); format: functional;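 also: measured as one member of a kinome-wide kinase panel, with MAP4K2 as the panel entry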
Chain of Mitogen-activated protein kinase kinase kinase kinase 2 (Q12851 whole entry): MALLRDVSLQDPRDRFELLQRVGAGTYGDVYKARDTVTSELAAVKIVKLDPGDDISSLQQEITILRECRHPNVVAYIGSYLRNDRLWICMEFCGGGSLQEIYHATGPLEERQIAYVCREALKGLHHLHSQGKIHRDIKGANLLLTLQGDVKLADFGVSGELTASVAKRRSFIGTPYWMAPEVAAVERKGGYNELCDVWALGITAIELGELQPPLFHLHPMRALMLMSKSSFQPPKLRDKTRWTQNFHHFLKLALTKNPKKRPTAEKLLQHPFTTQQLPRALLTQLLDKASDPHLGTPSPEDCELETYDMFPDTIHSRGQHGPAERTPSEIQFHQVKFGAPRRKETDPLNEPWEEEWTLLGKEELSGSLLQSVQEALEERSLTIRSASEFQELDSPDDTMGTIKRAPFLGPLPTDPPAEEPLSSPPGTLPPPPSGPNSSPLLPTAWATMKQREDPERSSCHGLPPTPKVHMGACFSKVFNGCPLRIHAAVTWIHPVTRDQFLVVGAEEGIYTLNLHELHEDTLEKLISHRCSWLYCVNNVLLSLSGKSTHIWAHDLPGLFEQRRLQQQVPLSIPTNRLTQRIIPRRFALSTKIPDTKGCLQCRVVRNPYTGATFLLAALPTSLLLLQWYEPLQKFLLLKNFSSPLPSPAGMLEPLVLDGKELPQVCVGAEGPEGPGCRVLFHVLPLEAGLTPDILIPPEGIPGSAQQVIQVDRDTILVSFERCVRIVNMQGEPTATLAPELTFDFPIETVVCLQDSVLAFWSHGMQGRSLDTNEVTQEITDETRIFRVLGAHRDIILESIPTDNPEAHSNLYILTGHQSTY

[12] = molecular target: Receptor-type tyrosine-protein kinase FLT3 (Homo sapiens, UniProt P36888); format: functional;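 also: FLT3 was tested as one member of a kinome-wide kinase panel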
[13] = molecular target: MAP kinase-interacting serine/threonine-protein kinase 2 (Homo sapiens, UniProt Q9HBH9); format: functional
[14] = molecular target: Mitogen-activated protein kinase 1 (Homo sapiens, UniProt P28482); format: functional
[15] = molecular target: Serine/threonine-protein kinase Nek4 (Homo sapiens, UniProt P51957); format: functional
Chain of Serine/threonine-protein kinase Nek4 (P51957 whole entry): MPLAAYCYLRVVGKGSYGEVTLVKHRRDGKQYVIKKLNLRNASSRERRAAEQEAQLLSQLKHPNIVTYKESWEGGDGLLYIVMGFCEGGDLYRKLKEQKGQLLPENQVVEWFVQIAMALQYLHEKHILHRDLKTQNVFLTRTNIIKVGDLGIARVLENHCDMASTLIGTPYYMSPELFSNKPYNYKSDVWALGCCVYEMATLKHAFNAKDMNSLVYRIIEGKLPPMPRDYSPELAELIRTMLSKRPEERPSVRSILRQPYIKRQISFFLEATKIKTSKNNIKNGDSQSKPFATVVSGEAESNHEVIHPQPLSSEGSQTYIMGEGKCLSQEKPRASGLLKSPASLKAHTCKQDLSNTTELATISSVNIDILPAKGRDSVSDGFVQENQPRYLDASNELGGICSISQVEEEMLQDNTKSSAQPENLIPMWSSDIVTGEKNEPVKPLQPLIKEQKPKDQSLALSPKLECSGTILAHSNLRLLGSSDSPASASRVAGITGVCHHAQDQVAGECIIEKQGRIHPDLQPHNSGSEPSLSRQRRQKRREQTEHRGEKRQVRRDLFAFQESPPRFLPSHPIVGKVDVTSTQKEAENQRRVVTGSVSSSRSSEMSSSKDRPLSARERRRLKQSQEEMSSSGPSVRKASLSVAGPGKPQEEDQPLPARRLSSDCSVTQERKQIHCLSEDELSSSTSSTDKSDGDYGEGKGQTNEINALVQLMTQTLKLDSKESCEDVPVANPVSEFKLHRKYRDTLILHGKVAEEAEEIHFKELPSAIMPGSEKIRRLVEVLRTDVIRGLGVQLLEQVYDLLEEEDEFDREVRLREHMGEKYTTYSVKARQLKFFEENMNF

[16] = molecular target: Interleukin-1 receptor-associated kinase 1 (Homo sapiens, UniProt P51617); format: functional;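 also: IRAK1 tested as one member of a kinome panel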
[17] = molecular target: Homeodomain-interacting protein kinase 4 (Homo sapiens, UniProt Q8NE63); format: functional
[18] = molecular target: Cyclin-dependent kinase 1 (Homo sapiens, UniProt P06493); format: functional;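 also: Kinome-wide panel profiling, with the target listed as panel member CDC2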
[19] = molecular target: Glycogen synthase kinase-3 beta (Homo sapiens, UniProt P49841); format: functional;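 also: value comes from a broad kinome profiling panel, with GSK3B as the panel member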
Chain of Glycogen synthase kinase-3 beta (P49841 whole entry): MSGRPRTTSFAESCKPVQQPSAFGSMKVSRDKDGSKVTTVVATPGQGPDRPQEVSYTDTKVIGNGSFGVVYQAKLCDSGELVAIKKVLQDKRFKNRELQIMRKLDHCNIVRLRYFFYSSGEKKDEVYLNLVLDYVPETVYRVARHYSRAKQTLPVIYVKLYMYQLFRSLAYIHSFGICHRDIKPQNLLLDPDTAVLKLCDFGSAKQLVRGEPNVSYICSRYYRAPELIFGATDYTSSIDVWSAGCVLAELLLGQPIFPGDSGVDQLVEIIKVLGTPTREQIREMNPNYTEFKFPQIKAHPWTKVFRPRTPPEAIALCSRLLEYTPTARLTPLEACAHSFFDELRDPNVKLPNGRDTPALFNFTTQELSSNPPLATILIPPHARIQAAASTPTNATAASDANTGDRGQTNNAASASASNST

[20] = molecular target: T2, Heat shock factor protein 1 (Mus musculus, UniProt P38532); assay: decrease of HSF1-responsive luciferase luminescence – cell-based, NIH3T3, dose retest, confirmation (AID 2382); format: functional;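 also: NIH3T3 fibroblasts with HSF1-driven luciferase reporter stressed by proteasome inhibitor MG132; luminescence from HSF1-driven luciferase expression after 8 hours of MG132 stress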
T2 sequence (P38532 whole entry): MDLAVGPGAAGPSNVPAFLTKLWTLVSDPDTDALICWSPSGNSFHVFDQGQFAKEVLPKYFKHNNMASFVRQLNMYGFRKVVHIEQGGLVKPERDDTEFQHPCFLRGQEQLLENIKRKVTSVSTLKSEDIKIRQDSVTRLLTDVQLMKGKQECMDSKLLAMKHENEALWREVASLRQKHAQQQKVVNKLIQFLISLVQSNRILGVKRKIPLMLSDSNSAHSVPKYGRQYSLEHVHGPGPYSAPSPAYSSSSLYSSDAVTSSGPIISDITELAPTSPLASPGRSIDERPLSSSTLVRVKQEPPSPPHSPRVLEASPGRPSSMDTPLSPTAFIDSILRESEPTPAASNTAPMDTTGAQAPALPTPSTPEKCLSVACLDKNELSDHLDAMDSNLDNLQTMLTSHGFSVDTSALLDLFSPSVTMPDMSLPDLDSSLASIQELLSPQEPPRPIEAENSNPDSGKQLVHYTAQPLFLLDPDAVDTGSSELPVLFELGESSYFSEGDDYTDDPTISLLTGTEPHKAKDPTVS

BJ = assay: BJ-TERT-LT-ST fibroblast viability loss – cell-based, RAS-independent, luminescence, dose response (AID 1935); format: functional; settings: Homo sapiens;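 also: BJ fibroblasts immortalized with TERT plus LT and ST oncogenes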
[21] = molecular target: T3, Sentrin-specific protease 8 (Homo sapiens, UniProt Q96LD8); format: functional
T3 sequence (Q96LD8 whole entry): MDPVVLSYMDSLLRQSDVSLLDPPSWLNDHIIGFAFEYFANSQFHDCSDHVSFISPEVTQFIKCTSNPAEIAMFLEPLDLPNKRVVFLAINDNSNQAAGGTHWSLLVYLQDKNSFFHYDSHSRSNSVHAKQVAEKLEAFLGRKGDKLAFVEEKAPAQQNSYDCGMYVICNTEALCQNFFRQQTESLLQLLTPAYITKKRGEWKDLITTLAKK

In the case of `CC(=O)N(C1=C(Cl)C(=O)c2ccccc2C1=O)C1CCCCC1`, the EC50 [1] is reported as 9510 nM (active) and the AC50 (Paired box protein Pax-8) is reported as 2740 nM (active).

For `Oc1ccc(-c2cn3c(n2)SCC3)cc1O`, the EC50 [2] was 22100 nM (active) and the EC50 [3] was 70900 nM (active).

In the case of `O=C1Nc2ccc3ncsc3c2C1=CNc1ccc(S(=O)(=O)Nc2ccccn2)cc1`, the Ki [4] is reported as 39.8 nM (active), the Ki [5] is reported as 158 nM (active) and the Ki [6] is reported as 50.1 nM (active). For the same compound, the Ki [7] was 79.4 nM (active), the Ki [8] was 1260 nM (active) and the Ki [9] was 316 nM (active). For the same compound, the Ki [10] was 251 nM (active), the Ki [11] was 7.94 nM (active) and the Ki [12] was 3.16 nM (active). The Ki [13] was 126 nM (active), the Ki [14] was 158 nM (active) and the Ki [15] was 501 nM (active). For the same compound, the Ki [16] was 20 nM (active), the Ki [17] was 2000 nM (active) and the Ki [18] was 20 nM (active). The Ki [19] was 3.16 nM (active).

In the case of `Cc1ccc(NC2=C/C(=N\S(=O)(=O)c3cccs3)c3ccccc3C2=O)c(C)c1`, the EC50 [20] is reported as 1560 nM (active) and the EC50 (BJ) is reported as 4420 nM (inconclusive).

With `COc1ccc(/C=N/NC(=O)c2nn(-c3ccccc3)c(=O)c3c(N)scc23)cc1` the IC50 [21] was 346 nM (active).
